From paper PMC3759356 (Cancer cell, 2013) come the findings set out here.

The test concerns the target T1, BARD1 (Homo sapiens, UniProt Q99728).
T1 sequence (Q99728 568-777 limits assumed): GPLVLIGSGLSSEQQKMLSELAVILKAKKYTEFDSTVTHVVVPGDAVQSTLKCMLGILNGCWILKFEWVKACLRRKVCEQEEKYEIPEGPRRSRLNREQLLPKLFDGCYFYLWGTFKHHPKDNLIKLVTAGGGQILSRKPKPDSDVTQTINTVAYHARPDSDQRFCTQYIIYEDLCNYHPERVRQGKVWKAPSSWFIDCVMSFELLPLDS
Briefly: ITC. It counts as binding.

Molecules are shown by their SMILES.

Usually Kd stands for the concentration at which binding is half-saturated. Consider `Nc1ncnc2c1ncn2[C@@H]1O[C@H](COP(=O)(O)OP(=O)(O)OC[C@H]2OC(O)[C@H](O)[C@@H]2O)[C@@H](O)[C@H]1O` (stereo partly shown) [ADP-ribose], for which the Kd was about 0.25 µM.
